Measurements from patent US20200339544A1 (JOINT STOCK COMPANY "BIOCAD", priority 2017, published 2020).
Where two headings read alike, the source gives them in different places.

Assays:
[1] = test system: HCC827 (lung adenocarcinoma, SM, exon19delE746-A750); experiment: Antiproliferative activity on HCC827 cells (Alamar Blue); assay type: cell-based; conditions: Homo sapiens, antiproliferative test
Procedure: Antiproliferative activity of EGFR inhibitors (Tables 15 and 16) was measured in cell-based bioassay on continuous epithelial cell cultures: A549 (lung adenocarcinoma, ATCC® CRM-CCL-185™—WT), HCC827 (lung adenocarcinoma, ATCC® CRL-2868™—SM (SingleMutantEGFR, exon19delE746-A750)) and H1975 (lung adenocarcinoma, ATCC® CRL-5908™—DM (DoubleMutantEGFR, L828R/T790M)) using cell viability reagent Alamar Blue (ThermoFisher, # DAL1100). Cells were cultured in 10% FBS-supplemented (Gibco, #16140071) RPMI-1640 (PanEco, S330p) for at least 1 passage after thawing, washed with PBS and passaged in 96-well culture plates (3599, Corning) with RPMI-1640 growth medium supplemented with 2% FBS in an amount of 5*10^3 cells/well for A549, 10*10^3 cells/well for HCC827 and 15*10^3 cells/well for H1975 in 100 μL, and incubated at 37° C. in an incubator (Thermo Forma, USA) under 5% of CO2 for 16-18 h for cell attachment.
The test compounds were dissolved in DMSO in the selected range of concentrations and transferred to RPMI-1640 medium (PanEco, S330p) supplemented with 2% FBS. After adding 50 μl of the prepared dilutions to the cells, the incubation mixture contained the final concentrations of the test substances and no more than 1% DMSO. The plates were Incubated at 37° C. for 72 h. After incubation, 15 μl of Alamar Blue vital dye (ThermoFisher, # DAL1100) was added to each well. The plates were shaken on an orbital shaker (Biosan, Latvia) and further incubated for 3-5 h in a CO2 incubator (Thermo Forma, USA). Number of living cells was estimated using a plate spectrophotometer Infinite M200Pro, (Tecan, Switzerland) measuring fluorescent signal at the excitation wavelength (λEx) of 540 nm and emission wavelength (λEm) of 590 nm.
IC50 was calculated using Magellan 7.2 software (Tecan, Switzerland) approximating experimental points by four-parameter logistic model with the optimization by Levenberg-Marquardt.

[2] = test system: A549 (lung adenocarcinoma, WT); experiment: Antiproliferative activity on A549 cells (Alamar Blue); assay type: cell-based; conditions: Homo sapiens, antiproliferative test
Method in brief: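 Cells seeded at 5*10^3/well in RPMI-1640 with 2% FBS, attached 16-18 h at 37° C, then exposed to compounds (≤1% DMSO) for 72 h. Alamar Blue added for 3-5 h; fluorescence read at 540/590 nm. IC50 from four-parameter logistic fit.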

[3] = test system: H1975 (lung adenocarcinoma, DM, L828R/T790M); experiment: Antiproliferative activity on H1975 cells (Alamar Blue); assay type: cell-based; conditions: for IC50: Homo sapiens, NCI-H1975, H1975 cells; for SI IC50(A549)/IC50(DM): selectivity index, A549 vs H1975 cells
Method in brief: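 H1975 cells (15*10^3/well) attached 16-18 h in RPMI-1640 with 2% FBS, then exposed to compounds (≤1% DMSO final) for 72 h at 37 °C. Viability by Alamar Blue fluorescence (Ex 540/Em 590 nm) after 3-5 h; IC50 from four-parameter logistic fit.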

[4] = target: T1, DM EGFR (DoubleMutantEGFR, L828R/T790M) (Homo sapiens, UniProt P00533, L858R/T790M); experiment: Inhibition of DM EGFR kinase activity (ADP-Glo); assay type: biochemical; conditions: for IC50: inhibition of kinase activity, EGFR DM (L828R/T790M); for SI, IC50(WT)/IC50(DM): selectivity index, kinase EGFR WT vs EGFR DM
T1 construct: purchased SignalChem
Method in brief: (§1)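 Recombinant WT or double-mutant EGFR was incubated with a solution of 0.5 mg/mL peptide substrate and 50 μM ATP for 180 minutes at 37° C. Kinase activity was detected by ADP-Glo luminescence. IC50 values came from a four-parameter logistic fit.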

[5] = General cytotoxicity on HepG2 cells; assay type: cell-based; conditions: human; general cytotoxicity, HepG2 cells, 72 hours, average of several tests
Method in brief: (§2)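 HepG2 cells seeded at 2*10^4 cells per well and compounds added in DMEM with 2% FBS for 72 h at 37 °C. Viability read with Alamar Blue and CC50 derived as for IC50. Therapeutic index taken as HepG2 CC50 over H1975 IC50.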

[6] = test system: HepG2 cells; experiment: General cytotoxicity on HepG2 cells; assay type: cell-based; conditions: therapeutic index, CC50 HepG2 / IC50 H1975
Method in brief: as §2

[7] = target: T2, WT EGFR (Wild-Type EGFR) (Homo sapiens, UniProt P00533); experiment: Inhibition of WT EGFR kinase activity (ADP-Glo); assay type: biochemical
T2 construct: purchased SignalChem
Method in brief: as §1

[8] = Chemical stability in human blood plasma; assay type: in vitro ADME; conditions: pooled human blood plasma; 10 μm; 4 hours at 37° C.; substance amount remaining
Method in brief: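 Pooled plasma from ten healthy donors was spiked to 10 μM from a 10 mM DMSO stock and held 4 h at 37 °C. After acetonitrile protein precipitation, HPLC peak areas before and after incubation gave the percentage of compound remaining.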

[9] = Enzyme stability in human liver S9 fractions; assay type: in vitro ADME; conditions: 0.5 mg/mL pooled human liver S9 fractions; 10 μM compound; 37° C.; pH 7.4; read-out: Stability in liver S9 fractions, Clint
Procedure: Determination of enzyme stability.
Measuring of candidate enzyme stability enabled estimation of the stability of the compounds towards the action of liver enzymes.
Enzyme degradation rate was measured by incubating the reaction mixture in a dry block thermostat at 37° C., said reaction mixture comprising 0.5 mg/mL of pooled human liver S9 fractions (XenoTech, USA, cat # H0610), 10 μM compound, 2 mM β-nicotinamide adenine dinucleotide (Carbosynth, UK, cat # NN10871) and 4 mM magnesium chloride in 0.1 M sodium-phosphate buffer, pH=7.4. The reaction was quenched with acetonitrile (100 μL of acetonitrile/100 μL of the reaction mixture). After quenching, the samples were centrifuged at 10000 rpm for 10 minutes. Supernatant fluid was tested by chromatographic technique using Agilent1200 (Agilent, USA). We used gradient elution (1 mL/min flow rate). A graph of the logarithm of substance's peak area as a function of time was made. The dependent factor of the line corresponded to the elimination rate constant K based on which the drug's half-life T½ and intrinsic clearance CLint were calculated:
Based on the data obtained, candidate enzyme stability in human liver S9 fractions was determined (see Table 11).

[10] = average values obtained in several tests, Table 16, read-out: H1975 (DM) IC50
[11] = antiproliferative test, Table 15, read-out: IC50 H1975 (DM)

Row | Structure (SMILES) | IC50 [1] [nM] | IC50 [2] [nM] | IC50 [3, 10] [nM] | IC50 [3, 11] [nM] | IC50 [4] [nM] | SI, IC50(WT)/IC50(DM) [4] | IC50 [7] [nM] | Stability in blood plasma, % [8] [%] | Intrinsic clearance in human liver S9 fractions at 10 µM [9] [µL/min/mg] | SI IC50(A549)/IC50(DM) [3] | CC50 at 72 h [5] [nM] | TI, CC50/IC50 [6]
1 | C=CC(=O)Nc1cc(Nc2cc(C(=O)c3ccc(N(CC)CC)cc3)ccn2)c(OC)cc1N(C)CCN(C)C | 13.9 | 4420 | 34.2 | 34.2 | 5.53 | 26.20 | 145 |  |  | 129 | 7820 | 229
2 | C=CC(=O)Nc1cc(Nc2nccc(C(=O)c3ccc(OC4CCCCC4)cc3)n2)c(OC)cc1N(C)CCN(C)C [EGFR_3365_67, N-(5-((4-(4-(cyclohexyloxy)benzoyl)pyrimidin-2-yl)amino)-2-((2-(dimethylamino)ethyl)(methyl)amino)-4-methoxyphenyl)acrylamide] | 26.3 | 2470 | 221 | 221 | 10.5 | 9.27 | 97.5 | 92.8 | 18.7 | 11 | 9460 | 43
3 | C=CC(=O)Nc1cc(Nc2cc(C(=O)c3ccc(OCC(C)C)cc3)ccn2)c(OC)cc1N(C)CCN(C)C [EGFR_3365_77, N-(2-((2-(dimethylamino)ethyl)(methyl)amino)-5-((4-(4-isobutoxybenzoyl)pyridin-2-yl)amino)-4-methoxyphenyl) acrylamide] | 23.5 | 2170 | 249 | 249 | 4.97 | 10.04 | 49.9 |  |  | 9 | 8340 | 33
4 | C=CC(=O)Nc1cc(Nc2nccc(C(=O)c3ccc(N4CCC(N(C)C)CC4)cc3)n2)c(OC)cc1N(C)CCN(C)C [EGFR_3365_121a, N-(2-((2-(dimethylamino)ethyl)(methyl)amino)-5-((4-(4-(4-(dimethylamino)piperidin-1-yl)benzoyl)pyrimidin-2-yl)amino)-4-methoxyphenyl) acrylamide] | 13.5 | 3270 | 2.55 | 2.55 | 0.96 | 30.92 | 29.6 | 99.0 | 2.1 | 1284 | 11800 | 4649

The next lines start with results.

Row | IC50 [1] [nM] | IC50 [2] [nM] | IC50 [3, 10] [nM] | IC50 [3, 11] [nM] | IC50 [4] [nM] | SI, IC50(WT)/IC50(DM) [4] | IC50 [7] [nM] | Stability in blood plasma, % [8] [%] | Intrinsic clearance in human liver S9 fractions at 10 µM [9] [µL/min/mg] | Structure (SMILES) | SI IC50(A549)/IC50(DM) [3] | CC50 at 72 h [5] [nM] | TI, CC50/IC50 [6]
5 |  | 12800 | 19.1 | 19.1 | 1.99 | 63.44 | 126 | 94.6 | 19.8 | C=CC(=O)Nc1cc(Nc2nccc(C(=O)c3ccc(N4CC[C@@H](OC)C4)cc3)n2)c(OC)cc1N(C)CCN(C)C [EGFR_3365_115, (R)-N-(2-((2-(dimethylamino)ethyl)(methyl)amino)-4-methoxy-5-((4-(4-(3-methoxypyrrolidin-1-yl)benzoyl)pyrimidin-2-yl)amino)phenyl)acrylamide] | 670 | 22000 | 1154
6 | 5.19 | 16400 | 4.5 | 4.5 | 2.37 | 13.01 | 30.9 | 100.0 | 3.8 | C=CC(=O)Nc1cc(Nc2nccc(C(=O)c3ccc(N4CCN(C)CC4)cc3OC)n2)c(OC)cc1N(C)CCN(C)C [EGFR_3365_120, N-(2-((2-(dimethylamino)ethyl)(methyl)amino)-4-methoxy-5-((4-(2-methoxy-4-(4-methylpiperazin-1-yl)benzoyl)pyrimidin-2-yl)amino)phenyl)acrylamide] | 3644 | 29300 | 6514
7 |  | 7190 | 1.18 | 1.18 | 2.65 | 19.58 | 52 | 87.3 | 9.2 | C=CC(=O)Nc1cc(Nc2nccc(C(=O)c3ccc(N4CCCC4)cc3OC)n2)c(OC)cc1N(C)CCN(C)C [EGFR_3365_123, N-(2-((2-(dimethylamino)ethyl)(methyl)amino)-4-methoxy-5-((4-(2-methoxy-4-(pyrrolidin-1-yl)benzoyl)pyrimidin-2-yl)amino)phenyl)acrylamide] | 6105 | 40000 | 33959
8 |  | 19700 | 66.3 | 66.3 | 3.57 | 21.41 | 76.3 | 90.7 | 22.2 | C=CC(=O)Nc1cc(Nc2nccc(C(=O)c3c(OC)cc(OC)cc3OC)n2)c(OC)cc1N(C)CCN(C)C [EGFR_3365_124, N-(2-((2-(dimethylamino)ethyl)(methyl)amino)-4-methoxy-5-((4-(2,4,6-trimethoxybenzoyl)pyrimidin-2-yl)amino)phenyl)acrylamide] | 298 | > 50000 | >754
